{"source": "patent US10208046B2", "about": "“Nitrogen-containing heterocyclic compound” (Takeda Pharmaceutical Company Limited, priority 2014, dated 2019)", "molecular_target": "T1, human M1 receptor (hCHRM1) (Homo sapiens, UniProt P11229)", "T1 construct": "expressed in transfected cells", "T1 sequence (P11229 1-460)": "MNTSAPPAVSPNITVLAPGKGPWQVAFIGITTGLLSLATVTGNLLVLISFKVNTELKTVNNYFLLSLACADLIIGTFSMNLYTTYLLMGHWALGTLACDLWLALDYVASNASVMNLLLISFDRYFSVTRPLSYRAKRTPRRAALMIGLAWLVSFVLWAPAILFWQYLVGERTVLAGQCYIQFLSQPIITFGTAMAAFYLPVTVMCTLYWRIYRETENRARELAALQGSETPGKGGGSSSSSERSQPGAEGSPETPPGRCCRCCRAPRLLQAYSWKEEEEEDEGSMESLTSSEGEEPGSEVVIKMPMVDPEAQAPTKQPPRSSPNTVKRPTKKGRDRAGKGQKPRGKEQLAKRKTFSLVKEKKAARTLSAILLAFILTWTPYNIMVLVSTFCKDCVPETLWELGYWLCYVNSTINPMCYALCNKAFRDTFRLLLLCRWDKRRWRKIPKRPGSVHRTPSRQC", "test": "Measurement of M1 receptor positive allosteric modulator (M1PAM) activity, calcium fluorescence in CHO-K1 cells;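 as to EC50: potency reported as IP value in nM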", "format": "cell-based", "settings": "for activity (%) at 10 μM: 10 μM test compound with acetylcholine at EC20, 100% = acetylcholine 1 μM, 0% = DMSO; for EC50: inflection point in the concentration-dependent curve, acetylcholine at EC20 (final 0.6-0.8 nM), CHO-K1 cells expressing human M1, Fluo-4, FLIPRtetra, read-out: IP value", "method": "Measurement of M1 Receptor Positive Allosteric Modulator (M1PAM) Activity\nThe activity of a test compound in the presence of acetylcholine at EC20 concentration (final concentration 0.6-0.8 nM), which affords an action corresponding to about 20% of the maximum activity, was measured as PAM activity. The method is as follows. CHO-K1 cells stably expressing a human M1 receptor (hCHRM1) were plated on a 384-well black clear bottom plate (BD Falcon) at 5,000 cells/well, and cultured in an incubator at 37° C., 5% CO2 for 1 day. The medium in the cell plate was removed, and assay buffer A containing calcium indicator (Recording medium (DOJINDO LABORATORIES), 0.1% BSA (Wako Pure Chemical Industries, Ltd.), 2.5 μg/mL Fluo-4 AM (DOJINDO LABORATORIES), 0.08% Pluronic F127 (DOJINDO LABORATORIES), 1.25 mM probenecid (DOJINDO LABORATORIES)) was added at 30 μL/well. The cells were left standing in the incubator at 37° C., 5% CO2 for 30 min, and further left standing at room temperature for 30 min. A test compound prepared by diluting with assay buffer B (HBSS (Invitrogen), 20 mM HEPES (Invitrogen), 0.1% BSA) containing 2.4-3.2 nM acetylcholine was added at 10 μL/well, and the fluorescence was measured by FLIPRtetra (Molecular Devices) for 1 min every 1 second. With the definition that the amount of change in the fluorescence on addition of acetylcholine (final concentration 1 μM) is 100% and that on addition of DMSO instead of a test compound is 0%, the activity (%) of the test compound was calculated, and the inflection point in the concentration-dependent curve of the test compound was calculated as IP values."}
{"smiles": "CCn1cc(-c2ccc(CN3Cc4ncnc(OCC(C)(F)F)c4C3=O)cc2)cn1", "note": "[Example 1, 4-(2,2-difluoropropoxy)-6-(4-(1-ethyl-1H-pyrazol-4-yl)benzyl)-6,7-dihydro-5H-pyrrolo[3,4-d]pyrimidin-5-one]", "values": [{"measurement": "activity (%) at 10 μM", "value": 91, "unit": "%"}, {"measurement": "EC50", "value": 17, "unit": "nM"}]}
{"smiles": "CCn1cc(-c2ccc(CN3Cc4ncnc(OCC(F)F)c4C3=O)cc2)cn1", "note": "[Example 2, 4-(2,2-difluoroethoxy)-6-(4-(1-ethyl-1H-pyrazol-4-yl)benzyl)-6,7-dihydro-5H-pyrrolo[3,4-d]pyrimidin-5-one]", "values": [{"measurement": "activity (%) at 10 μM", "value": 108, "unit": "%"}, {"measurement": "EC50", "value": 31, "unit": "nM"}]}
{"smiles": "CCn1cc(-c2ccc(CN3Cc4ncnc(OCC(C)(F)F)c4C3=O)c(F)c2)cn1", "note": "[Example 3, 4-(2,2-difluoropropoxy)-6-(4-(1-ethyl-1H-pyrazol-4-yl)-2-fluorobenzyl)-6,7-dihydro-5H-pyrrolo[3,4-d]pyrimidin-5-one]", "values": [{"measurement": "activity (%) at 10 μM", "value": 103, "unit": "%"}, {"measurement": "EC50", "value": 8.9, "unit": "nM"}]}
{"smiles": "CCn1cc(-c2ccc(CN3Cc4ncnc(OCC(F)F)c4C3=O)c(F)c2)cn1", "note": "[Example 4, 4-(2,2-difluoroethoxy)-6-(4-(1-ethyl-1H-pyrazol-4-yl)-2-fluorobenzyl)-6,7-dihydro-5H-pyrrolo[3,4-d]pyrimidin-5-one]", "values": [{"measurement": "activity (%) at 10 μM", "value": 99, "unit": "%"}, {"measurement": "EC50", "value": 8.7, "unit": "nM"}]}
{"smiles": "Cc1nn(C)cc1-c1ccc(CN2Cc3ncnc(OCC(C)(C)F)c3C2=O)cc1", "note": "[Example 5, 6-(4-(1,3-dimethyl-1H-pyrazol-4-yl)benzyl)-4-(2-fluoro-2-methylpropoxy)-6,7-dihydro-5H-pyrrolo[3,4-d]pyrimidin-5-one]", "values": [{"measurement": "activity (%) at 10 μM", "value": 105, "unit": "%"}, {"measurement": "EC50", "value": 17, "unit": "nM"}]}
{"smiles": "CCC(F)(F)COc1nccc2c1C(=O)N(Cc1ccc(-c3cn(C)nc3C)cc1F)C2", "note": "[Example 7, 4-(2,2-difluorobutoxy)-2-(4-(1,3-dimethyl-1H-pyrazol-4-yl)-2-fluorobenzyl)-1,2-dihydro-3H-pyrrolo[3,4-c]pyridin-3-one]", "values": [{"measurement": "activity (%) at 10 μM", "value": 90, "unit": "%"}, {"measurement": "EC50", "value": 9.1, "unit": "nM"}]}
{"smiles": "CCC(F)(F)COc1ncnc2c1C(=O)N(Cc1ccc(-c3cn(C)nc3C)cc1)C2", "note": "[Example 8, 4-(2,2-difluorobutoxy)-6-(4-(1,3-dimethyl-1H-pyrazol-4-yl)benzyl)-6,7-dihydro-5H-pyrrolo[3,4-d]pyrimidin-5-one]", "values": [{"measurement": "activity (%) at 10 μM", "value": 109, "unit": "%"}, {"measurement": "EC50", "value": 23, "unit": "nM"}]}
{"smiles": "Cn1ccc(-c2ccc(CN3Cc4ncnc(OCC(F)(F)F)c4C3=O)c(F)c2)n1", "note": "[Example 9, 6-(2-fluoro-4-(1-methyl-1H-pyrazol-3-yl)benzyl)-4-(2,2,2-trifluoroethoxy)-6,7-dihydro-5H-pyrrolo[3,4-d]pyrimidin-5-one]", "values": [{"measurement": "activity (%) at 10 μM", "value": 102, "unit": "%"}, {"measurement": "EC50", "value": 77, "unit": "nM"}]}
{"smiles": "CCC(F)(F)COc1ncnc2c1C(=O)N(Cc1ccc(C(=O)NC)cc1)C2", "note": "[Example 10, 4-((4-(2,2-difluorobutoxy)-5-oxo-5,7-dihydro-6H-pyrrolo[3,4-d]pyrimidin-6-yl)methyl)-N-methylbenzamide]", "values": [{"measurement": "activity (%) at 10 μM", "value": 103, "unit": "%"}, {"measurement": "EC50", "value": 33, "unit": "nM"}]}
{"smiles": "Cc1cc(-c2ccc(CN3Cc4ncnc(OCC(F)(F)F)c4C3=O)cc2)ccn1", "note": "[Example 11, 6-(4-(2-methylpyridin-4-yl)benzyl)-4-(2,2,2-trifluoroethoxy)-6,7-dihydro-5H-pyrrolo[3,4-d]pyrimidin-5-one]", "values": [{"measurement": "activity (%) at 10 μM", "value": 87, "unit": "%"}, {"measurement": "EC50", "value": 23, "unit": "nM"}]}
{"smiles": "CC(F)(F)COc1nccc2c1C(=O)N(Cc1ccc(-c3cnn(CC(F)(F)F)c3)cc1)C2", "note": "[Example 12, 4-(2,2-difluoropropoxy)-2-(4-(1-(2,2,2-trifluoroethyl)-1H-pyrazol-4-yl)benzyl)-1,2-dihydro-3H-pyrrolo[3,4-c]pyridin-3-one]", "values": [{"measurement": "activity (%) at 10 μM", "value": 97, "unit": "%"}, {"measurement": "EC50", "value": 59, "unit": "nM"}]}
{"smiles": "CC(F)(F)COc1nccc2c1C(=O)N(Cc1ccc(-c3cnn(CC(F)F)c3)cc1)C2", "note": "[Example 13, 2-(4-(1-(2,2-difluoroethyl)-1H-pyrazol-4-yl)benzyl)-4-(2,2-difluoropropoxy)-1,2-dihydro-3H-pyrrolo[3,4-c]pyridin-3-one]", "values": [{"measurement": "activity (%) at 10 μM", "value": 100, "unit": "%"}, {"measurement": "EC50", "value": 55, "unit": "nM"}]}
